Patent US8580773B2, “Small-molecule inhibitors of the androgen receptor” (The Regents of the University of California, priority 2008, dated 2013)
Positions count from the first letter of the chain named. “Also recorded” adds a separate entry of the source. Structures can show the parent of a compound that is named as a salt.

Experiments:
[1] = tested on: prostate; experiment: Prostate weight in mice after four weeks of treatment; assay type: in vivo; conditions: male mice, 5 times per week for four weeks; BiC 100 mg/kg PO, PP 1 mg/kg IP, or the combination
Method: Animals were treated 5 times per week for four weeks. At the end of the study period, animals were sacrificed and prostate tissue weighed. After weighing, the tissue was divided in half for pathological and genetic studies. […] (FIG. 7).

[2] = target: T1, human androgen receptor (Homo sapiens, UniProt P10275); experiment: Screen of 1040 FDA-approved drugs and natural products for AR antagonists (MMTV-luciferase transcription assay and C-AR-Y FRET conformation assays); assay type: cell-based; conditions: test compounds at 10 μM, 10 nM DHT, 24 hours; validated by dose-response
T1 construct: expressed in transfected cells; host or cells: HEK293 and LAPC4 stably expressing C-AR-Y; HEK293 transiently transfected with native AR
T1 sequence (P10275 1-920): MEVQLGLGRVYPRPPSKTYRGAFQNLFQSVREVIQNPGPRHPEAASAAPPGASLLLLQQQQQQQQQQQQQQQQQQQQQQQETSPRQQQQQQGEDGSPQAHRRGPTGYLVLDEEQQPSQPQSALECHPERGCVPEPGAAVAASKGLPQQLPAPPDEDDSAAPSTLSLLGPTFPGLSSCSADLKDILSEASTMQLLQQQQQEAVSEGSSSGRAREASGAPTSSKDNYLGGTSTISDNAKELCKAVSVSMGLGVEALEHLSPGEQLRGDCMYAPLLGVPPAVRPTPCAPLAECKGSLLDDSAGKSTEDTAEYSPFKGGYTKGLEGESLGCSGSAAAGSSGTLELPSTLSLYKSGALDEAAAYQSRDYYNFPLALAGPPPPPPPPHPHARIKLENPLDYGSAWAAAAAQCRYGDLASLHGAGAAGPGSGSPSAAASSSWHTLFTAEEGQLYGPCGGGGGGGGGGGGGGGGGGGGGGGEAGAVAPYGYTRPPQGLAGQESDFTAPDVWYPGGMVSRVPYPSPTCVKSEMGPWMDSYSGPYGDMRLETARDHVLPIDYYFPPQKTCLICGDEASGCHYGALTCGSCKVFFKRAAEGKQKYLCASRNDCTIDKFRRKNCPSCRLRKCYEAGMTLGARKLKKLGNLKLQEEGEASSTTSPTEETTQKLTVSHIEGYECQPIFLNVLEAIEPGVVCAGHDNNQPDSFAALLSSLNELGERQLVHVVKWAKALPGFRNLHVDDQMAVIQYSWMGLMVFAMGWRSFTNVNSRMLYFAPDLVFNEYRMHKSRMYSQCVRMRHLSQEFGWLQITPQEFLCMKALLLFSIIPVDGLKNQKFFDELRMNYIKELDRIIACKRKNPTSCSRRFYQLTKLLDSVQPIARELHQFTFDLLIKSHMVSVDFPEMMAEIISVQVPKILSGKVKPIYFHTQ
Method: A library assembled by the NINDS was screened. The library consisted of 1040 FDA-approved drugs and natural products. A basic strategy to select and compare compounds from each of the primary screens was established (FIG. 1).
The transcription assay was conducted by transfecting 10 cm plates of HEK293 cells with plasmids encoding MMTV-luciferase, SV40-renilla luciferase, and native AR. […] FRET is fluorescence resonance energy transfer between cyan and yellow fluorescent protein derivatives (CFP, YFP) that are fused to the amino and carboxyl termini of the human androgen receptor. When ligand activates the receptor, a conformational change takes place that brings the CFP and YFP into close proximity, thereby allowing FRET to occur. This spectroscopic change is detected using a fluorescence plate reader.
For the transcription assay, transfected cells were pooled before being plated into 96-well dishes with the test compounds at 10 μM. […] Cell and compound transfers were accomplished with a liquid handling robot. Cells were cultured for 24 hours in the presence of 10 nM DHT and the test compounds. After 24 hours, cells were either lysed by freeze-thaw (transcription assay), or fixed in 4% paraformaldehyde for reading on the FPR (FRET assays). Each compound was tested in duplicate in the initial screen.
The compounds were sorted on the basis of anti-androgen effects. […] This eliminated situations in which one test gave a strong response, and the replicate had none. […] For the FRET assays, toxic compounds were easily detected because of their effect on raw CFP and YFP signal, and compounds that reduced this signal below two standard deviations were eliminated.
The top 50 compounds identified in each primary assay were then tested in the other two assays.

[3] = target: T2, AR (Homo sapiens, UniProt P10275, T878A); experiment: DHT titration against inhibitor, PSA-luciferase reporter in LNCaP cells (competitive vs non-competitive); assay type: cell-based; conditions: moderate dose of inhibitor, DHT titrated
T2 construct: that each express endogenous AR; endogenous in cells; host or cells: LNCaP
T2 sequence (P10275 whole entry T878A): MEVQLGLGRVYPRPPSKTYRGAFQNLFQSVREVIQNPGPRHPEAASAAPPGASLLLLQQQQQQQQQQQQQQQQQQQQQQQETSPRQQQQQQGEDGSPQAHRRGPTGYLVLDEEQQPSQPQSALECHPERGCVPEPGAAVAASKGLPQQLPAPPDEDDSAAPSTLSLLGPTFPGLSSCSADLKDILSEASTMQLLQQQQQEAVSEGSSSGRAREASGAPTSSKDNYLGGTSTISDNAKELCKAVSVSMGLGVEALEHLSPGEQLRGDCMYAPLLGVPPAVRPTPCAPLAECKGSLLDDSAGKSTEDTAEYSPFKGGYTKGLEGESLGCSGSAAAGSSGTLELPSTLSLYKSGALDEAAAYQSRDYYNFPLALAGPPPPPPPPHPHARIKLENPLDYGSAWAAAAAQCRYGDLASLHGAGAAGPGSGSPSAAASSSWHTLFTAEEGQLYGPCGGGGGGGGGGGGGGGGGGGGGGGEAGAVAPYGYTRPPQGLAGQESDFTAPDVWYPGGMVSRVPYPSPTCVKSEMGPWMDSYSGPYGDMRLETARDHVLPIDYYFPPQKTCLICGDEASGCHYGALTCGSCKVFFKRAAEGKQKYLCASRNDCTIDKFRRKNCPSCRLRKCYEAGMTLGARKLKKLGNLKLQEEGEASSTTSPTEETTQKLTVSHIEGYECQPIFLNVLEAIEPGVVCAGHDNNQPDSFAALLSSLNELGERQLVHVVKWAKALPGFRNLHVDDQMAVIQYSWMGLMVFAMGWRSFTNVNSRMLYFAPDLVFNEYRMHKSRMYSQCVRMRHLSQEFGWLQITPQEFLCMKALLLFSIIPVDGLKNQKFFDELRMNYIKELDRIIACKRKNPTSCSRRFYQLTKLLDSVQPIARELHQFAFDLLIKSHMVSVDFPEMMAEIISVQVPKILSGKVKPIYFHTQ

[4] = tested on: HEK293 cells; experiment: Cell proliferation (DNA content, DAPI) in control HEK293 cells; assay type: cell-based; conditions: PP 100 nM, HH 100 nM, BiC 1 μM
Text: LN-AR cells were created by retroviral infection of a high-expressing AR vector into LNCaP cells, and proliferate independent of androgen in cell culture, unlike their parental line (Chen, C. D., et al., Molecular determinants of resistance to antiandrogen therapy. Nat Med, 2004. 10(1): p. 33-9). HEK293 cells were used as a control. Cells were transferred to charcoal-stripped media two days before they were split and plated in quadruplicate at a density of approximately 20,000 cells/well in 48-well plates. […] Media were changed every day, using a single preparation to ensure consistent compound concentrations. Proliferation was determined by measuring the DNA content of the cells in each well. Each day, the cells in four wells were fixed in 100% cold methanol, followed by staining for 5 min at RT with 0.2 ng/mL 4′,6-diamidino-2-phenylindole (DAPI) in PBS. The cells were washed once in PBS, then read on a fluorescence plate reader using 365/439 excitation/emission wavelengths. LAPC4 and LNCaP cells proliferated to a much greater degree in the presence of DHT, while LN-AR cells proliferated in the presence and absence of DHT.

[5] = tested on: androgen-regulated genes in the prostate; experiment: Quantitative PCR of androgen-regulated genes in mouse prostate, normalized to RPL19; assay type: in vivo; conditions: mice
Method: A cohort of mice were castrated as a positive control.
For quantitative PCR, RNA was isolated from mouse prostates and reverse-transcribed. The expression of several androgen-regulated genes, of which a subset is shown (FIG. 13), was determined by using QPCR and normalizing to the expression of the housekeeping gene RPL19.

[6] = tested on: dorsal prostate; experiment: Histology of mouse dorsal prostate after 5 weeks of treatment; assay type: in vivo; conditions: FVB male mice, THP or BiC alone, or combination
[7] = target: T3, native androgen receptor (Homo sapiens, UniProt P10275); experiment: PSA-luciferase reporter with CMV-renilla control in LAPC4 cells (THP); assay type: cell-based; conditions: LAPC4, DHT and increasing amounts of compound
T3 construct: that each express endogenous AR; endogenous in cells; host or cells: LAPC4
T3 sequence (P10275 1-920): T1 sequence (P10275 1-920)
Text: LAPC4 cells, a prostate cancer cell line that expresses native androgen receptor, were transfected with a PSA-luciferase reporter, and a CMV-renilla luciferase control.

[8] = tested on: prostate; experiment: Prostate wet weight in FVB male mice after 5 weeks of treatment; assay type: in vivo
[9] = target: T4, AR with a mutation (T877A) (Homo sapiens, UniProt P10275, T878A); experiment: PSA-luciferase reporter transcription assay in LNCaP cells; assay type: cell-based; conditions: 3 nM DHT
T4 construct: that each express endogenous AR; endogenous in cells; host or cells: LNCaP
T4 sequence (P10275 1-920 T878A): T1 sequence (P10275 1-920) with T878A
Method: Cells were transfected with two reporter plasmids, a PSA-luciferase construct (androgen responsive), and an SV40-renilla luciferase construct as an internal control. The following day, the cells were split and drugs added in the presence of 3 nM DHT. Luciferase production was measured the following day (Dual luciferase assay kit, Promega).
Synergism can be defined as a combination index of less than one, using the non-exclusive assumption described by Chou et al. (Chou, T. C. and P. Talalay, Quantitative analysis of dose-effect relationships: the combined effects of multiple drugs or enzyme inhibitors. Adv Enzyme Regul, 1984. 22: p. 27-55).

With `CC(O)(CS(=O)(=O)c1ccc(F)cc1)C(=O)Nc1ccc(C#N)c(C(F)(F)F)c1` (stereo not shown) [BiC, bicalutamide] the “Reduction of prostate weight” value [1] was 35%.
For `O=c1ccc2cc(O[C@@H]3O[C@H](CO)[C@@H](O)[C@H](O)[C@H]3O)c(O)cc2o1` [Esculin], the “Anti-androgen activity in screen” value [2] was “previously unrecognized anti-androgen activity”.
For `CC(C)(O)C(=O)Nc1ccc([N+](=O)[O-])c(C(F)(F)F)c1` [OH—F, hydroxy-flutamide, reference compound], the “Anti-androgen activity in screen” value [2] was “top hits” and the “Mode of antagonism on DHT titration” value [3] was “DHT overcame the inhibitory effect; also recorded: consistent with a competitive antagonist”.
In the case of `Cc1cc(/C=C/c2ccc3cc(N(C)C)ccc3[n+]2C)c(C)n1-c1ccccc1` [PP, 6-Dimethylamino-2-[2-(2,5-dimethyl-1-phenyl-1H-pyrrol-3-yl)-vinyl]-1-methyl-quinolinium, pamoate salt, reference compound], the Non-specific growth inhibition [4] is reported as “Neither compound exhibited non-specific growth inhibition”.
For `COc1cc2ccc(=O)oc2cc1O` [Scopoletin], the “Anti-androgen activity in screen” value [2] was “previously unrecognized anti-androgen activity”.
`Cc1cc(/C=C/C2CCc3cc(N(C)C)ccc3N2C)c(C)n1-c1ccccc1` (stereo not shown) [THP, {2-[2-(2,5-Dimethyl-1-phenyl-1H-pyrrol-3-yl)-vinyl]-1-methyl-1,2,3,4-tetrahydro-quinolin-6-yl}-dimethyl-amine] was tested, and the “Expression of androgen-regulated genes in the prostate (QPCR)” value ([5]; 2 mg/kg THP) was “modest effects”, the “Expression of androgen-regulated genes in the prostate (QPCR)” value ([5]; 20 mg/kg THP) was “significantly decreased the transcription of many androgen regulated genes” and the “Atrophy of the dorsal prostate by histological examination” value [6] was “modest atrophy”. For the same compound, the “Inhibition of androgen receptor-mediated transcription (normalized luciferase activity)” value [7] was “strong inhibition of androgen receptor-mediated transcription”, the “Appearance of the prostate” value ([8]; 20 mg/kg THP, 5 weeks) was “abnormal milky appearance of the prostate” and the “Change in prostate wet weight” value ([8]; 5 weeks daily M-F, 1 mg/kg PP, 100 mg/kg BiC, 20 mg/kg THP, or 2 mg/kg THP + 100 mg/kg BiC) was “did not reduce overall wet weight”.
Work on Harman yielded an IC50 [9] of 380 nM.
